Source: patent US20080274104A1, “Targeting a Secreted Pro-Apoptotic Factor for Cancer Therapeutics” (priority 2005, published 2008)
Values joined by “and” are separate entries in the source; they are usually repeats but may differ in a detail not shown here. Identical values can stand only once.

Columns and labels:
[1] = system: NGAL expression in SKBr3 cell line; assay: NGAL expression in breast cancer cell line; type: cell-based, human
Description: Several breast cancer cell lines were examined for NGAL expression.

C3H/HeJ mice = assay: C3H/HeJ mouse leukemia model injected with BCR-ABL+ 32D cells; type: in vivo; details: individual mouse
Protocol: Therefore, the present inventors wanted to determine whether the affects of anti-sense 24p3 expression in leukemia cells would produce the same effects as in the NOD/scid mouse. In these experiments, 10e6 BCR-ABL+32D cells were injected iv into 8-week old C3H/HeJ mice. Leukemia cells expressed either GFP or anti-sense 24p3 RNA or siRNA for 24p3. The GFP expressing leukemia cells induced a vigorous leukemia involving marrow, spleen, blood and liver (Table 2). Expression of anti-sense 24p3 in leukemia cells reduced the level of invasion in marrow and the spleen but not the liver. Importantly, these mice developed a vigorous ascites tumor growth of GFP+ cells, which was not observed in the GFP vector expressing leukemia cells. […]

suitable targets cells = assay: Apoptosis induction with purified 24p3/NGAL; type: cell-based; details: GST-bacterial method protein
Description: These findings indicate that the Bcr-Abl oncoprotein in addition to its oncogenic effects also induces secretion of an apoptotic factor (24p3/NGAL) that causes suppression of normal hematopoiesis. […] Detailed structural analysis has shown that NGAL is an iron binding protein, and that the ligand for NGAL is a catecholate-type siderophore (Goetz et al., 2002). Whether the siderophore binding function is related to 24p3/NGAL's ability to induce apoptosis is not known. In specific embodiments, the apoptotic activity of 24p3/NGAL may require either post-translational modification in eukaryotic cells or formation of a complex with one or more factors. […] Local suppression of normal hematopoiesis by 24p3/NGAL secreted by leukemia cells would allow the leukemic clone to more readily compete, survive, infiltrate and proliferate in normal marrow and the spleen tissue environment. […] Thus, as little as one pluripotent stem cell that has acquired BCR-ABL expression by forming the Philadelphia chromosome could survive and compete in the normally active marrow environment because of its ability to secrete a cell death factor (and possibly other factors; Eaves et al., 1998; Olofsson and Olsson, 1980; Olofsson and Olsson, 1980; Skold et al., 1999) to which it is resistant. The ensuing cell death in the surrounding marrow cells would facilitate expansion of the leukemic clone in the normal marrow. […]

## Cc1ccc(S(=O)(=O)/C=C/C#N)cc1 [BAY11-7082]
[1]
  NGAL expression: strongly inhibited

## siRNA #4: small hairpin RNA against 24p3 driven by H1 promoter, SEQ ID NO:1 (DNA GGCAGCTTTACGATGTACATTCAAGAGATGTACATCGTAAAGCTGCCTTTTTTCCAAT; expressed or natural sequence)
C3H/HeJ mice
  Ascites: Yes
  Solid tumor: Yes
C3H/HeJ mice; listed as 32Dp210 siRNA
  GFP positive cells, Ascites: 90% (2×) and 80% and 100% (2×)
  GFP positive cells, BM: <1% and 5% (3×) and No
  GFP positive cells, Liver: 20% and 50% and 40% and 10% and 25%
  GFP positive cells, PB: 50% and <1% and 20%
  GFP positive cells, Spleen: 5% and 25% and <1% and No and 20%
  GFP positive cells, Tumor: 40% and 70%
  Spleen wt: 160 mg and 110 mg and 40 mg and 90 mg and 130 mg

B1: purified 24p3/NGAL: purified 24p3/NGAL lipocalin protein made by GST-bacterial method (protein, UniProt P11672 21-200, looked up)
Neutrophil …: QDSTQNLIPAPSLLTVPLQPDFRSDQFRGRWYVVGLAGNAVQKKTEGSFTMYSTIYELQENNSYNVTSILVRDQDQGCRYWIRTFVPSSRAGQFTLGNMHRYPQVQSYNVQVATTDYNQFAMVFFRKTSENKQYFKITLYGRTKELSPELKERFTRFAKSLGLKDDNIIFSVPTDQCIDN
Suitable targets cells
  apoptosis induction: unable to induce apoptosis
